Measurements reported in ChEMBL document CHEMBL4837201, “Increased antibacterial properties of indoline-derived phenolic Mannich bases” (Eur J Med Chem, 2021).
≈ marks a conversion by molar mass, not a printed value.

Columns and labels:
[1] = test system: Staphylococcus epidermidis; assay: Antibacterial activity against Staphylococcus epidermidis ATCC 12228 assessed as inhibition of bacterial growth incubated for 16 to 24 hrs by broth microdilution method; type: functional; details: time 16-24 hrs
Staphylococcus aureus [2] = assay: Antibacterial activity against Staphylococcus aureus ATCC 6538 assessed as inhibition of bacterial growth incubated for 16 to 24 hrs by broth microdilution method; type: functional; details: time 16-24 hrs
Staphylococcus aureus [3] = assay: Antibacterial activity against methicillin-resistant Staphylococcus aureus CIP106760 assessed as inhibition of bacterial growth incubated for 16 to 24 hrs by broth microdilution method; type: functional; details: time 16-24 hrs
Staphylococcus aureus [4] = assay: Antibacterial activity against methicillin-sensitive Staphylococcus aureus ATCC 25923 assessed as inhibition of bacterial growth incubated for 16 to 24 hrs by broth microdilution method; type: functional; details: time 16-24 hrs
Enterococcus faecalis [5] = assay: Antibacterial activity against vancomycin-resistant Enterococcus faecalis ATCC 51299 assessed as inhibition of bacterial growth incubated for 16 to 24 hrs by broth microdilution method; type: functional; details: time 16-24 hrs
Bacillus subtilis = assay: Antibacterial activity against Bacillus subtilis ATCC 6633 assessed as inhibition of bacterial growth incubated for 16 to 24 hrs by broth microdilution method; type: functional; details: time 16-24 hrs
Enterococcus faecalis [6] = assay: Antibacterial activity against Enterococcus faecalis ATCC 29212 assessed as inhibition of bacterial growth incubated for 16 to 24 hrs by broth microdilution method; type: functional; details: time 16-24 hrs
HaCaT [7] = assay: (§1) Cytotoxicity against human HaCaT cells assessed as cell viability at 50 uM after 24 hrs by MTT assay; type: cell-based; details: hacat, 24 h, 50 µM
[8] = Toxicity in Saccharomyces cerevisiae ATCC 2601 assessed as reduction in cell viability measured after 24 hrs by microdilution method; details: Saccharomyces cerevisiae, Saccharomyces cerevisiae ATCC 2601 cells
HaCaT [9] = assay: Cytotoxicity against human HaCaT cells assessed as reduction in cell viability at 50 uM after 24 hrs by MTT assay; type: cell-based
Enterococcus faecalis [10] = assay: Antibacterial activity against Enterococcus faecalis assessed as inhibition of bacterial growth incubated for 16 to 24 hrs by broth microdilution method; type: functional; details: time 16-24 hrs
Enterococcus faecium = assay: Antibacterial activity against Enterococcus faecium assessed as inhibition of bacterial growth incubated for 16 to 24 hrs by broth microdilution method; type: functional; details: time 16-24 hrs
[11] = as §1; type: cell-based; details: HaCaT cells, read-out: Activity
Staphylococcus aureus [12] = assay: Antibacterial activity against Staphylococcus aureus assessed as inhibition of bacterial growth incubated for 16 to 24 hrs by broth microdilution method; type: functional; details: time 16-24 hrs
[13] = Antioxidant activity assessed as DPPH radical scavenging activity at 10 ug/ml by DPPH assay relative to control; type: functional; details: dose 10.0 µg/ml
Listeria monocytogenes = assay: Antibacterial activity against Listeria monocytogenes assessed as inhibition of bacterial growth incubated for 16 to 24 hrs by broth microdilution method; type: functional; details: time 16-24 hrs
[14] = test system: Staphylococcus epidermidis; assay: Antibacterial activity against Staphylococcus epidermidis assessed as inhibition of bacterial growth incubated for 16 to 24 hrs by broth microdilution method; type: functional; details: time 16-24 hrs
[15] = Toxicity in Artemia salina assessed as mortality at 10 ug/ml measured after 24 hrs; details: at 10 µg/mL
MRC5 = assay: Cytotoxicity against human MRC5 cells assessed as reduction in cell viability measured after 24 hrs by MTT assay; type: cell-based; details: MRC5, 24 h

Compound	MIC [1]	MIC (Staphylococcus aureus [2])	MIC (Staphylococcus aureus [3])	MIC (Staphylococcus aureus [4])	MIC (Enterococcus faecalis [5])	MIC (Bacillus subtilis)	MIC (Enterococcus faecalis [6])	MBC [1]	MBC (Staphylococcus aureus [2])	MBC (Staphylococcus aureus [3])	MBC (Staphylococcus aureus [4])	IC50 at 24 h [8]	MBC (Enterococcus faecalis [5])	MBC (Bacillus subtilis)	Activity (HaCaT [9])	MBC (Enterococcus faecalis [6])	mortality at 24 h, 10 ug/ml [15]	other results
CN[C@H](CC(C)C)C(=O)N[C@H]1C(=O)N[C@@H](CC(N)=O)C(=O)N[C@H]2C(=O)N[C@H]3C(=O)N[C@H](C(=O)N[C@H](C(=O)O)c4cc(O)cc(O)c4-c4cc3ccc4O)[C@H](O)c3ccc(c(Cl)c3)Oc3cc2cc(c3O[C@@H]2O[C@H](CO)[C@@H](O)[C@H](O)[C@H]2O[C@H]2C[C@](C)(N)[C@H](O)[C@H](C)O2)Oc2ccc(cc2Cl)[C@H]1O [VANCOMYCIN]	1.95 µM (≈ 2.83 µg/mL)	1.35 µM (≈ 1.96 µg/mL)	< 1.5 µM	5.4 µM (≈ 7.83 µg/mL)	< 5.83 µM	1.95 µM (≈ 2.83 µg/mL)	3.07 µM (≈ 4.45 µg/mL)	–	–	–	–	–	–	–	–	–	–	–
Cc1ccccc1C(c1cc([N+](=O)[O-])ccc1O)N1CCc2cc(Br)ccc21 (configuration not stated)	< 1.18 µM	1.11 µM (≈ 0.488 µg/mL)	1.11 µM (≈ 0.488 µg/mL)	2.22 µM (≈ 0.975 µg/mL)	4.45 µM (≈ 1.95 µg/mL)	< 1.18 µM	1.11 µM (≈ 0.488 µg/mL)	< 1.18 µM	4.45 µM (≈ 1.95 µg/mL)	1.11 µM (≈ 0.488 µg/mL)	35.6 µM (≈ 15.6 µg/mL)	> 100 µM	142 µM (≈ 62.4 µg/mL)	< 1.18 µM	Toxic	8.89 µM (≈ 3.91 µg/mL)	–	Activity (HaCaT [7]): Toxic
Cc1ccc(C(c2cc([N+](=O)[O-])ccc2O)N2CCc3cc([N+](=O)[O-])ccc32)cc1 (configuration not stated)	18.9 µM (≈ 7.66 µg/mL)	19.3 µM (≈ 7.82 µg/mL)	1.2 µM (≈ 0.486 µg/mL)	1.2 µM (≈ 0.486 µg/mL)	2.41 µM (≈ 0.977 µg/mL)	18.9 µM (≈ 7.66 µg/mL)	1.2 µM (≈ 0.486 µg/mL)	37.7 µM (≈ 15.3 µg/mL)	77.1 µM (≈ 31.3 µg/mL)	4.82 µM (≈ 1.95 µg/mL)	38.6 µM (≈ 15.6 µg/mL)	> 100 µM	154 µM (≈ 62.4 µg/mL)	37.7 µM (≈ 15.3 µg/mL)	–	9.64 µM (≈ 3.91 µg/mL)	–	MIC (Enterococcus faecalis [10]): 19.3 µM (≈ 7.81 µg/mL); MIC (Enterococcus faecium): 9.64 µM (≈ 3.91 µg/mL); viability at 24 h, 50 µM [11]: 94%; MIC (Staphylococcus aureus [12]): 9.64 µM (≈ 3.91 µg/mL); Activity [13]: 8%; MIC (Listeria monocytogenes): 9.64 µM (≈ 3.91 µg/mL); MIC [14]: 9.64 µM (≈ 3.91 µg/mL)
O=[N+]([O-])c1ccc(O)c(C(c2ccc(C(F)(F)F)cc2)N2CCc3ccccc32)c1 (configuration not stated)	< 1.18 µM	1.18 µM (≈ 0.489 µg/mL)	1.18 µM (≈ 0.489 µg/mL)	1.18 µM (≈ 0.489 µg/mL)	1.18 µM (≈ 0.489 µg/mL)	< 1.18 µM	1.18 µM (≈ 0.489 µg/mL)	< 1.18 µM	2.36 µM (≈ 0.978 µg/mL)	1.18 µM (≈ 0.489 µg/mL)	37.7 µM (≈ 15.6 µg/mL)	> 100 µM	151 µM (≈ 62.6 µg/mL)	< 1.18 µM	Non-Toxic	9.43 µM (≈ 3.91 µg/mL)	8%	MIC (Enterococcus faecalis [10]): 2.36 µM (≈ 0.978 µg/mL); MIC (Enterococcus faecium): 2.36 µM (≈ 0.978 µg/mL); Activity (HaCaT [7]): Non-Toxic; MIC (Staphylococcus aureus [12]): 1.18 µM (≈ 0.489 µg/mL); IC50 (MRC5): 1.7 µM; MIC (Listeria monocytogenes): 1.18 µM (≈ 0.489 µg/mL); MIC [14]: 1.18 µM (≈ 0.489 µg/mL)
O=[N+]([O-])c1ccc2c(c1)CCN2C(c1ccc(C(F)(F)F)cc1)c1cc([N+](=O)[O-])ccc1O (configuration not stated)	< 1.18 µM	–	1.11 µM (≈ 0.51 µg/mL)	2.22 µM (≈ 1.02 µg/mL)	4.45 µM (≈ 2.04 µg/mL)	9.43 µM (≈ 4.33 µg/mL)	1.11 µM (≈ 0.51 µg/mL)	2.36 µM (≈ 1.08 µg/mL)	–	1.11 µM (≈ 0.51 µg/mL)	35.6 µM (≈ 16.4 µg/mL)	292 µM	142 µM (≈ 65.2 µg/mL)	18.9 µM (≈ 8.68 µg/mL)	Toxic	8.89 µM (≈ 4.08 µg/mL)	–	IC50 (MRC5): 5.8 µM
O=[N+]([O-])c1ccc(O)c(C(c2ccc(Cl)cc2)N2CCc3ccccc32)c1 (configuration not stated)	–	1.23 µM (≈ 0.468 µg/mL)	1.23 µM (≈ 0.468 µg/mL)	2.47 µM (≈ 0.941 µg/mL)	1.23 µM (≈ 0.468 µg/mL)	–	1.23 µM (≈ 0.468 µg/mL)	–	2.47 µM (≈ 0.941 µg/mL)	< 1.23 µM	9.86 µM (≈ 3.75 µg/mL)	> 100 µM	19.7 µM (≈ 7.5 µg/mL)	–	–	> 9.86 µM	< 15%	–
Cc1ccccc1C(c1cc([N+](=O)[O-])ccc1O)N1CCc2cc([N+](=O)[O-])ccc21 (configuration not stated)	< 1.18 µM	2.41 µM (≈ 0.977 µg/mL)	1.2 µM (≈ 0.486 µg/mL)	1.2 µM (≈ 0.486 µg/mL)	2.41 µM (≈ 0.977 µg/mL)	< 1.18 µM	1.2 µM (≈ 0.486 µg/mL)	4.71 µM (≈ 1.91 µg/mL)	9.64 µM (≈ 3.91 µg/mL)	4.82 µM (≈ 1.95 µg/mL)	38.6 µM (≈ 15.6 µg/mL)	121 µM	154 µM (≈ 62.4 µg/mL)	2.36 µM (≈ 0.957 µg/mL)	–	9.64 µM (≈ 3.91 µg/mL)	3%	–
COc1ccc2c(c1)CCN2C(c1ccc(C)cc1)c1cc([N+](=O)[O-])ccc1O (configuration not stated)	< 1.18 µM	20 µM (≈ 7.81 µg/mL)	10 µM (≈ 3.9 µg/mL)	20 µM (≈ 7.81 µg/mL)	20 µM (≈ 7.81 µg/mL)	< 1.18 µM	10 µM (≈ 3.9 µg/mL)	4.71 µM (≈ 1.84 µg/mL)	80 µM (≈ 31.2 µg/mL)	40 µM (≈ 15.6 µg/mL)	160 µM (≈ 62.5 µg/mL)	–	160 µM (≈ 62.5 µg/mL)	4.71 µM (≈ 1.84 µg/mL)	–	160 µM (≈ 62.5 µg/mL)	–	–
